Measurements as given in ChEMBL document CHEMBL3390836, “Mannich- and LedererManasse-based analogues of the natural product S-(+)-curcuphenol as cancer proliferation and migration inhibitors” (Medchemcomm, 2012).

Legend:
[1] = test system: MDA-MB-231; assay: Cytotoxicity against human MDA-MB-231 cells assessed as growth inhibition after 24 hrs by MTT assay; type: cell-based; settings: MDA-MB-231, 24 h
[2] = test system: MCF7; assay: Growth inhibition of human MCF7 cells after 72 hrs by MTT assay; type: functional, cell-based; settings: MCF7, 72 h
[3] = test system: MDA-MB-231; assay: Growth inhibition of human MDA-MB-231 cells after 72 hrs by MTT assay; type: functional, cell-based; settings: MDA-MB-231, 72 h
[4] = test system: MDA-MB-231; assay: Antimigratory activity against human MDA-MB-231 cells after 24 hrs by wound-healing assay; type: functional, cell-based; settings: MDA-MB-231, 24 h

Row | SMILES | IC50 [1] [µM] | IC50 [2] [µM] | IC50 [3] [µM] | IC50 [4] [µM]
1 | CCOC(CCN1COc2c([C@@H](C)CCC=C(C)C)ccc(C)c2C1)OCC | > 20 | 13.2 | 11.3 | 3.1
2 | CCOC(CCNCc1c(C)ccc([C@@H](C)CCC=C(C)C)c1O)OCC | > 20 | 10.3 | 14.9 | > 20
